Source: publication PMC4134510 (Journal of medicinal chemistry, 2010)

Assays:
[1] = format: in vivo; settings: mice, oral once daily
[2] = Pharmacokinetic properties on Balb/C mouse; settings: in vivo, oral, 20 mg/kg
PDK1(h) = biological target: T1, PDK1(h) (Homo sapiens, UniProt O15530); assay: Kinase selectivity panel, enzymatic activity; format: biochemical; settings: read-out: Enzymatic activity (% inhibition): PDK1(h)
T1 sequence (O15530 1-556): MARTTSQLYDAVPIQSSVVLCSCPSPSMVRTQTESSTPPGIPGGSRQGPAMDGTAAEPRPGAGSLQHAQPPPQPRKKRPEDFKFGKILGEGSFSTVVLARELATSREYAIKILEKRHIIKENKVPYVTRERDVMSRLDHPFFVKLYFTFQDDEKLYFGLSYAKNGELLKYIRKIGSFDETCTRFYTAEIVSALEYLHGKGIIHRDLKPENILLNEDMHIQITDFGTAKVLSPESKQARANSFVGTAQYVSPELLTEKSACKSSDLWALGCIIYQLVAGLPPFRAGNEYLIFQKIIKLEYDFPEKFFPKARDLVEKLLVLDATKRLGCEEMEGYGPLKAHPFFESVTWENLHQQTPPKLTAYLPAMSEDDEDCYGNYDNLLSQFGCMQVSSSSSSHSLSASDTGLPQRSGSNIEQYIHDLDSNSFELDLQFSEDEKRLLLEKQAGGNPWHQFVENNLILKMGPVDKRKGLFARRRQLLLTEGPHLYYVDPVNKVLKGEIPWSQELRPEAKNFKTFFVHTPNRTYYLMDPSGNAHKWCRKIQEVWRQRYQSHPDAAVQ

SMILES: Cc1ccc(Nc2ncc3c(n2)N(C)C(=O)N(c2cc(NC(=O)c4cccc(C(F)(F)F)c4)ccc2C)C3)cn1 [GNF-7]
- body weight change ([1]; 10 mg/kg dosing group): only a very small weight change
- body weight loss ([1]; doses of 20 mg/kg and above): > 10%
- AUC [2]: 26.7 µM·h
- inhibition at 10 µM (PDK1(h)): 0%
